Assay results published in US7718808B2, “Thiazole derivatives” (Kyowa Hakko Kirin Co., Ltd., priority 2003, dated 2010).

Assays:
[1] = target: T1, Rat Adenosine A2A Receptor (Rattus norvegicus, UniProt P30543); test: Adenosine A2A receptor binding test (3H-CGS21680 binding, rat corpus striatum); settings: test compound 10^−7 mol/L, 25° C., 120 minutes; for inhibition at 0.1 µM: read-out: Rat Adenosine A2A Receptor Binding Inhibition rate (%) (10^−7 mol/L)
T1 construct: tissue Nippon SLC (animals); host or cells: rat (SD) corpus striatum membrane homogenate
T1 sequence (P30543 whole entry): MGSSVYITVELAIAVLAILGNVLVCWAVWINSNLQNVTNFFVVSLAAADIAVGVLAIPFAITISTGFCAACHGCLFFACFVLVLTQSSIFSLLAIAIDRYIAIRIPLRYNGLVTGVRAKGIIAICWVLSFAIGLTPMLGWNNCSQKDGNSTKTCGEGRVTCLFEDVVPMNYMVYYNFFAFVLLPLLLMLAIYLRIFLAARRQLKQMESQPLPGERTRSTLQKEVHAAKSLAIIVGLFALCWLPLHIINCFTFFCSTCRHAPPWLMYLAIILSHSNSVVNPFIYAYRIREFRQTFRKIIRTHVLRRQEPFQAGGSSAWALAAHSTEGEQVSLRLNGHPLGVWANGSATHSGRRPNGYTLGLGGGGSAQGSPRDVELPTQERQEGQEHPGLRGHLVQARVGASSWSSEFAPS
Protocol: This test was carried but in a similar manner to a Bruns et al's method (Molecular Pharmacology, Vol. 29, p. 331, 1986).
Corpus striatum of rats (SD rat, by Nippon SLC) was suspended in 50 mL of an ice-cooled 50 mmol/L tris(hydroxymethyl)aminomethane hydrochloride (Tris-HCl) buffer (pH 7.7) using a polytron homogenizer (by Kinematica). The resulting homogenate was centrifuged (48,000×g, 20 minutes), and the resulting precipitate was again suspended by adding the same amount of a 50 mmol/L Tris-HCl buffer, followed by centrifugation under the same condition. The resulting final precipitate was suspended by adding a 50 mmol/L Tris-HCl buffer [containing 10 mmol/L magnesium chloride, adenosine deaminase 0.02 units/mg tissue (by Sigma)] so that the tissue concentration was 5 mg (wet weight)/mL.
To 100 μL of the above purified tissue suspension, were added 80 μL (final concentration […]) of tritium-labeled CGS-21680 {^3H-2-[p-(2-carboxyethyl)phenethylamino]-5′-(N-ethylcarboxamido)-adenosine: 40 curies/mmol; by New England Nuclear [The Journal of Pharmacology and Experimental Therapeutics, Vol. 251, p. 888, 1989]} and 20 μL of a test compound solution (10^−7 mol/L; a solution of a test compound in DMSO was diluted with Tris-HCl buffer). The resulting mixture was allowed to stand at 25° C. for 120 minutes, followed by rapid suction filtration through a glass fiber paper filter (GF/C; by Whatman). The filter was immediately washed three times with 200 μL of an ice-cooled 50 mmol/L Tris-HCl buffer. The glass fiber paper filter was transferred into a vial, Microscinti (by Perkin Elmer) was added thereto, and the radioactivity level was measured with Topcount (by Perkin Elmer).
The inhibition rate of the test compound to the adenosine A2A receptor binding (^3H-CGS21680 binding) was calculated according to the following formula.
Amount of total binding means the ^3H-CGS21680 binding radioactivity content in the absence of the test compound. Amount of non-specific binding means the ^3H-CGS21680 binding radioactivity content in the presence of 100 μmol/L cyclopentyladenosine (CPA; by Sigma). Amount of binding in the presence of test compound means the ^3H-CGS21680 binding radioactivity content in the presence of 10^−7 mol/L of the test compound.

Row | inhibition at 0.1 µM [1] [%] | Compound | further results
1 | 95 | O=C(Nc1nc(-c2ccco2)c(-c2ccncc2)s1)C1CCCCC1 [Compound 4, N-[4-(2-Furyl)-5-(4-pyridyl)thiazol-2-yl]cyclohexanecarboxamide] | –
2 | 100 | O=C(Nc1nc(-c2ccco2)c(-c2ccncc2)s1)c1cccnc1 [Compound 5, N-[4-(2-Furyl)-5-(4-pyridyl)thiazol-2-yl]pyridine-3-carboxamide] | –
3 | 100 | O=C(Nc1nc(-c2ccco2)c(-c2ccncc2)s1)c1ccco1 [Compound 8, N-[4-(2-Furyl)-5-(4-pyridyl)thiazol-2-yl]furan-2-carboxamide] | –
4 | 100 | O=C(Nc1nc(-c2ccco2)c(-c2ccncc2)s1)c1ccoc1 [Compound 9, N-[4-(2-Furyl)-5-(4-pyridyl)thiazol-2-yl]furan-3-carboxamide] | –
5 | 100 | O=C(Nc1nc(-c2ccco2)c(-c2ccncc2)s1)c1ccc(O)nc1 [Compound 11, N-[4-(2-Furyl)-5-(4-pyridyl)thiazol-2-yl]-2-hydroxypyridine-5-carboxamide] | –
6 | 90 | O=C(Nc1nc(-c2ccco2)c(-c2ccncc2)s1)c1ccc(Cn2ccnc2)cc1 [Compound 19, N-[4-(2-Furyl)-5-(4-pyridyl)thiazol-2-yl]-4-(imidazol-1-ylmethyl)benzamide] | –
7 | 85 | O=C(Nc1nc(-c2ccco2)c(Cc2ccccc2)s1)c1ccncc1 [Compound 23, N-[5-Benzyl-4-(2-furyl)thiazol-2-yl]pyridine-4-carboxamide] | –
8 | 88 | CCOC(=O)c1sc(NC(=O)c2ccncc2)nc1-c1ccco1 [Compound 24, N-(5-(Ethoxycarbonyl)-4-(2-furyl)thiazol-2-yl]pyridine-4-carboxamide] | –
9 | 92 | CN1CCN(c2cc(C(=O)Nc3nc(-c4ccco4)c(N4CCOCC4)s3)ccn2)CC1 [Compound 41, N-[4-(2-Furyl)-5-morpholinothiazol-2-yl]-2-(4-methylpiperazin-1-yl)pyridine-4-carboxamide] | –
10 | 95 | CS(=O)(=O)c1ccc(N2CCC(C(=O)Nc3nc(-c4ccco4)c(N4CCOCC4)s3)CC2)nc1 [Compound 46, N-[4-(2-Furyl)-5-morpholinothiazol-2-yl]-1-[5-(methanesulfonyl)pyridin-2-yl]piperidine-4-carboxamide] | –
11 | 100 | O=C(Nc1nc(-c2ccco2)c(CN2CCSCC2)s1)c1ccncc1 [Compound 87, N-[4-(2-Furyl)-5-(thiomorpholinomethyl)thiazol-2-yl]pyridine-4-carboxamide] | –
12 | 100 | O=C(Nc1nc(-c2ccco2)c(CN2CCOCC2)s1)c1cccnc1 [Compound 94, N-[4-(2-Furyl)-5-(morpholinomethyl)thiazol-2-yl]pyridine-3-carboxamide] | –
13 | 98 | O=C(Nc1nc(-c2ccco2)c(C(=O)c2ccccc2)s1)c1ccncc1 [Compound 99, N-[5-Benzoyl-4-(2-furyl)thiazol-2-yl]pyridine-4-carboxamide] | –
14 | 87 | O=C(Nc1nc(-c2ccco2)c(C(=O)c2ccc(F)cc2)s1)c1ccncc1 [Compound 170, N-[5-(4-Fluorobenzoyl)-4-(2-furyl)thiazol-2-yl]pyridine-4-carboxamide] | –
15 | – | Cc1ncc(C(=O)Nc2nc(-c3ccco3)c(C(=O)c3ccccn3)s2)cn1 [Compound 228] | Rat Adenosine A2A Receptor Binding Inhibition rate (%) (10^−7 mol/L) [1]: 84%
16 | 85 | COC(=O)Nc1nc(-c2ccco2)c(C(=O)c2ccccn2)s1 [Compound 249, Methyl N-[4-(2-furyl)-5-(pyridin-2-ylcarbonyl)thiazol-2-yl]carbamate] | –
17 | – | O=C(Nc1nc(-c2ccco2)c(C(=O)C2CCCC2)s1)c1ccncc1 [Compound 431, N-[5-(Cycolopentylcarbonyl)-4-(2-furyl)thiazol-2-yl]-pyridine-4-carboxamide] | Rat Adenosine A2A Receptor Binding Inhibition rate (%) (10^−7 mol/L) [1]: 98%
18 | – | O=C(Nc1nc(-c2ccccc2)c(C(=O)c2ccccn2)s1)c1ccncc1 [Compound 634, N-[4-Phenyl-5-(pyridin-2-ylcarbonyl)thiazol-2-yl]pyridine-4-carboxamide] | melting point: 231 to 235 °C
